In ChEMBL document CHEMBL3351754, “Rational use of plasma protein and tissue binding data in drug design” (J Med Chem, 2014) one finds fraction unbound data, which are given here for 2 compounds.

Structures are written as SMILES.

Data set [1] can be described thus: Fraction unbound in 100% human serum. The class given is ADME, cell-free.
The nature of data set [2]: Fraction unbound in mouse brain.

Usually fraction unbound stands for the share of the substance not bound to proteins or other matrix. High values mean weak binding, low ones extensive binding. As for `O=C(O)[C@H](Oc1cccc(C(F)(F)F)c1)c1ccc(Cl)cc1` [MBX-102 ACID FORM], in data set [1], the fraction unbound came out at 0.009.

Compound `CCCC(C)(COC(N)=O)COC(N)=O` [MEPROBAMATE] had a fraction unbound in data set [2] of 0.76.
